Assay results published in ChEMBL document CHEMBL5584318, “Targeting Solvent-Front Mutations for Kinase Drug Discovery: From Structural Basis to Design Strategies” (J Med Chem, 2024).

Experiment: Half life in human
Assay type: ADME

half-life [min]	Compound
3	Cn1cc(-c2cnn3ccc(N4CCC[C@@H]4c4cc(F)ccc4F)nc23)cn1
315	C[C@@H](Nc1ccn2ncc(-c3cnn(C)c3)c2n1)c1cc(F)ccc1OCC(F)F
8.3	Cn1cc(-c2cnn3ccc(N4CCC[C@@H]4c4cc(F)ccc4OCC(F)F)nc23)cn1
